Measurements taken from patent US8232243B2, “Tyrosine- and tryptophan-containing peptides as antioxidants” (Max-Planck-Gesellschaft zur Forderung der Wissenschaften …, priority 1999, dated 2012).
No end group written: not given here.

Key:
Type in all cases: biochemical
[1] = test system: B-phycoerythrin from Porphyrium cruentum; assay: peroxy free radical trapping test (protection of B-phycoerythrin from destruction by peroxy free radicals); details: B-phycoerythrin 10 nM, 2,2'-azobis-2-methylpropionamidine 500 μM, 37° C.; peptide 20 nM to 20 μM
Protocol: The ability of peptides to protect the globular protein B-phycoerythrin from destruction by peroxy free radicals was tested. This was done by oxidizing B-phycoerythrin from Porphyrium cruentum (10 nM) in phosphate-buffered saline solution using 2,2′-azobis-2-methylpropionamidine (500 μM) at 37° C. as source of peroxy free radicals. Destruction of the protein was measured by observing the decrease in the protein fluorescence with increasing incubation time (flash fluorimetry, excitation window 340±50 nm, emission window 572±6 nm) . The results of this experiment for the secretory peptides GnRH (human) and for the synthetic peptides WY, WGGGY, WW and YY are shown in FIG. 1A. The meanings in the individual diagrams are • the control and ⋄ a concentration of 20 nM, ∘ 200 nM, ▾ 2 μM and ∇ 20 μM of the particular peptide (quadruplicate determinations) .
The results are shown in FIG. 2. • means the control, ∘ means a concentration of 200 nM, ▾ means a concentration of 2 μM and ∇ means a concentration of 20 μM of the particular peptide (quadruplicate determinations).
Experiments were carried out to test the antioxidant effect of other substances in the peroxy free radical trapping test described in example 1. The results are shown in FIG. 3 (see FIG. 1A for explanation) .

human LDL = assay: protection of LDL from copper-catalyzed oxidation (conjugated dienes, 234 nm); details: LDL 0.1 mg/ml protein, 10 μM CuSO4, 37° C.; peptide 20 μM and 100 μM
Protocol: In a further test, the ability of the peptides to protect LDL from copper-catalyzed oxidation was tested. This was done by incubating fresh human LDL (0.1 mg/ml protein) with 10 μM CuSO4 at 37° C. The reaction products of the LDL decomposition (conjugated dienes) were measured by photometry at 234 nm as described by Moosmann and Behl (Proc. Natl. Acad. Sci. USA 96 (1999), 8867). The three curves show the control, a concentration of 20 μM and a concentration of 100 μM of the particular peptide (duplicate determinations).

[2] = test system: native rat brain membranes; assay: protection of brain membranes from oxidative damage by ascorbate (lipid peroxidation, chemiluminescence); details: membranes 0.5 mg/ml protein, 50 μM ascorbate, 37° C.; peptide 20 μM and 100 μM
Protocol: Secretory peptides are able to protect brain membranes from oxidative damage by ascorbate. This was done by oxidizing native rat brain membranes (0.5 mg/ml protein) by adding 50 μM ascorbate at 37° C. Single-photon measurement of the chemiluminescence (as measure of peroxidation reactions occurring) was measured for quantitative determination of the lipid peroxidation as described by Moosmann and Behl (supra). The results for GnRH (human) are shown in FIG. 1C. • means the control and ⋄ a concentration of 20 μM and ▪ a concentration of 100 μM of the particular peptide (duplicate determinations).

Substance | antioxidant effect in trapping peroxy free radicals (decrease in B-phycoerythrin fluorescence) [1] | antioxidant effect in preventing LDL oxidation (human LDL) | antioxidant effect in preventing peroxidation of brain lipids [2]
WGGY (A synthetic peptide which functions as an antioxidant) | Analogous results |  | 
LRPG-amide (LRPG-NH2; listed as Homo sapiens) [GnRH 7-10] | complete loss of activity |  | 
SYGLRPG-amide (SYGLRPG-NH2; listed as Homo sapiens) [GnRH 4-10] | markedly reduced |  | 
cyEHWSHDWKPG-amide (N-terminal pyroglutamate, C-terminal amide; listed as Petromyzon marinus) [GnRH (lamprey)] | Analogous results |  | 
cyEHWSYGLRPG-amide (N-terminal pyroglutamate, C-terminal amide; listed as Homo Sapiens) [GnRH (human)] | have antioxidant properties | have antioxidant properties | have antioxidant properties
cyEHWSYGWLPG-amide (HELM PEPTIDE1{[Glp].H.W.S.Y.G.W.L.P.G.[am]}$$$$V2.0; SMILES CC(C)C[C@H](NC(=O)[C@H](Cc1c[nH]c2ccccc12)NC(=O)CNC(=O)[C@H](Cc1ccc(O)cc1)NC(=O)[C@H](CO)NC(=O)[C@H](Cc1c[nH]c2ccccc12)NC(=O)[C@H](Cc1c[nH]cn1)NC(=O)[C@@H]1CCC(=O)N1)C(=O)N1CCC[C@H]1C(=O)NCC(N)=O; listed as Oncorhynchus tshawytscha) [GnRH (salmon)] | Analogous results |  | 
WGY | Analogous results |  | 
